Experimental data from US11939311B2, “Acid-labile surfactants” (Promega Corporation, priority 2019, dated 2024).

What was measured:
[1] = Thermal stability, LCMS (% remaining at 95° C. for 1 h); conditions: 20 mM DMSO stock diluted 100-times into Tris-based PCR buffer
Protocol: To test for thermal stability (% remaining at 95° C. for 1 h), 20 mM stock solutions of example compounds in DMSO were prepared. The stock solutions were diluted 100-times into a Tris-based PCR buffer and heated to 95° C. for 1 hour in a thermocycler. The solutions were then analyzed by LCMS.
(§1) Compound purity and percent remaining were determined by integrating peaks in the total ion chromatogram using LCMS. Compound peaks were identified in negative mode using the molecular weight without sodium. The mobile phase of acetonitrile and water contained 10 mM ammonium acetate using a Synergi Max-RP column, 50×4.6 mm, 2.5 microns.

[2] = Acid stability in 2% TFA, LCMS; conditions: 3 mM stock diluted 6-times to 2% TFA-NanoPure water
Protocol: To test for acid stability, a 3% stock solution (9 mg/300 μL) of each example compound was prepared in NanoPure water. A secondary 3 mM stock solution was prepared in NanoPure water. The secondary stock was diluted 6-times in NanoPure water as a control or diluted 6-times into 2.4% TFA-NanoPure water to 2% TFA-NanoPure water for the acid stability experiment. The solutions were heated to 40° C. for 1 hour and analyzed by LCMS.
as §1

Trypsin Gold (Promega) = target: T1, Trypsin Gold (Promega) (Sus scrofa, UniProt P00761); assay: Trypsin compatibility with the trypsin-specific substrate BAEE; type: biochemical; conditions: 0.1% surfactant, 200 μM BAEE; for Slope: 0.2 μg Trypsin Gold, absorbance at 253 nm every minute over 10 minutes; for % Trypsin Activity: compared to control of trypsin without surfactant
T1 construct: purchased Promega
T1 sequence (P00761 9-231): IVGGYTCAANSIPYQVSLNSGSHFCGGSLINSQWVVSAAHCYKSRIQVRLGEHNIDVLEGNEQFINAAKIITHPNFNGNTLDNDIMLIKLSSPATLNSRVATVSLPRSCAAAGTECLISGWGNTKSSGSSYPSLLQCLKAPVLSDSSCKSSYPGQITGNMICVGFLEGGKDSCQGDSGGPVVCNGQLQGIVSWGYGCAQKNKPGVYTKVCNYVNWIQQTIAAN
Protocol: Compatibility of the different compounds with trypsin was tested using a trypsin-specific substrate, benzoyl-L-arginine ethyl ester hydrochloride (BAEE). 4% stock solutions (12 mg/300 μL) of example compounds were prepared in NanoPure water. The stock solution was diluted 40 times in 50 mM ammonium bicarbonate, pH 7.8 (0.1% final) with 200 μM of BAEE. The entire sample was transferred to an individual well in a 96-well UV-compatible microplate. The absorbance of the sample was measured at 253 nm using a TECAN M1000 plate reader. After 2 minutes, 0.2 μg of Trypsin Gold (Promega) was added to the reaction and absorbance at 253 nm was monitored every minute over a period of 10 minutes. The resulting activity measurement was compared to the control of trypsin without surfactant present. Trypsin is the most commonly used protease for the digestion of protein mass spectrometry samples. The results from this experiment indicate that the compounds have a minimal effect on trypsin activity and can be used during the sample digestion step.

| Structure (SMILES) | % remaining after 1 hour at 95° C. in Polymerase Buffer C [1] | % remaining after 1 h at 40° C. in 2% TFA [2] | Slope (Trypsin Gold (Promega)) | % Trypsin Activity (Trypsin Gold (Promega)) |
| --- | --- | --- | --- | --- |
| CCCCCCOC(C)(COC(=O)NCCCS(=O)(=O)[O-])OCCCCCC.[Na+] [RBK-0169] | 6.0% | – | – | – |
| CCCCCCCCCCCC1OCC(COC(=O)NCCCS(=O)(=O)[O-])O1.[Na+] (stereo not shown) [JRW-1565, Sodium 3-((((2-undecyl-1,3-dioxolan-4-yl)methoxy)carbonyl)amino)propane-1-sulfonate] | 95.7% | 1% | – | – |
| CC(COC(=O)NCC(O)CS(=O)(=O)[O-])(OCCC(F)(F)C(F)(F)C(F)(F)C(F)(F)F)OCCC(F)(F)C(F)(F)C(F)(F)C(F)(F)F.[Na+] (stereo not shown) [ZZ-0850, Sodium 3-(((2,2-bis((3,3,4,4,5,5,6,6,6-nonafluorohexyl)oxy)propoxy)carbonyl)amino)-2-hydroxypropane-1-sulfonate] | 90.5% | 0% | – | – |
| CCCCCOC(C)(COC(=O)Nc1ccc(N(CCCS(=O)(=O)[O-])CCCS(=O)(=O)[O-])cc1)OCCCCC.[Na+].[Na+] [CS-0853, Sodium 3,3′-((4-(((2,2-bis(pentyloxy)propoxy)carbonyl)amino)phenyl)azanediyl) bis(propane-1-sulfonate)] | 2.5% | 42% | – | – |
| CCCCCCCCCCC1(C)OCC(COC(=O)NCCCS(=O)(=O)[O-])O1.[Na+] (stereo not shown) [AF-0045, Sodium 3-((((2-decyl-2-methyl-1,3-dioxolan-4-yl)methoxy)carbonyl)amino)propane-1-sulfonate] | 89.3% | 0% | – | – |
| CCCCCOC(C)(COC(=O)NCC(O)CS(=O)(=O)[O-])OCCCCC.[Na+] (stereo not shown) [RBK-0171] | 13.1% | – | – | – |
| CCCCCCC1(CCCCCC)OCC(COC(=O)NCCCS(=O)(=O)[O-])O1.[Na+] (stereo not shown) [TU-1179, Sodium 3-((((2,2-dihexyl-1,3-dioxolan-4-yl)methoxy)carbonyl)amino)propane-1-sulfonate] | 102.9% | 0% | – | – |
| CC(COC(=O)NCCCS(=O)(=O)[O-])(OCCC(F)(F)C(F)(F)C(F)(F)C(F)(F)C(F)(F)C(F)(F)F)OCCC(F)(F)C(F)(F)C(F)(F)C(F)(F)C(F)(F)C(F)(F)F.[Na+] [ZZ-0849, Sodium 3-(((2,2-bis((3,3,4,4,5,5,6,6,7,7,8,8,8-tridecafluorooctyl)oxy)propoxy)carbonyl)amino)propane-1-sulfonate] | >99% | 2% | – | – |
| CCCCCOC(C)(COC(=O)NCCCS(=O)(=O)[O-])OCCCCC.[Na+] [RBK-0168] | 5.4% | – | – | – |
| CCCCCCC1(CCCCCC)OCC(COC(=O)NCC(O)CS(=O)(=O)[O-])O1.[Na+] (stereo not shown) [JZ-0179, Sodium 3-((((2,2-dihexyl-1,3-dioxolan-4-yl)methoxy)carbonyl)amino)-2-hydroxypropane-1-sulfonate] | 83.9% | 100% | – | – |
| CCCCCCCC1(CCCCCCC)OCC(COC(=O)NCC(O)CS(=O)(=O)[O-])O1.[Na+] (stereo not shown) [RBK-0173] | 81.2% | Not soluble | – | – |
| CCCCCCCCCCCCC1OCC(COC(=O)NCCCS(=O)(=O)[O-])O1.[Na+] (stereo not shown) [JRW-1574, Sodium 3-((((2-dodecyl-1,3-dioxolan-4-yl)methoxy)carbonyl)amino)propane-1-sulfonate] | 92.8% | 4% | – | – |
| CCCCCCCCCCCC1(C)OCC(COC(=O)Nc2ccc(N(CCCS(=O)(=O)[O-])CCCS(=O)(=O)[O-])cc2)O1.[Na+].[Na+] (stereo not shown) [SL-1735, Sodium 3,3′-((4-((((2-methyl-2-undecyl-1,3-dioxolan-4-yl)methoxy)carbonyl)amino)phenyl)azanediyl)bis(propane-1-sulfonate)] | 93.6% | 0% | – | – |
| CCCCCCCCCCCC1OCC(COC(=O)Nc2ccc(N(CCCS(=O)(=O)[O-])CCCS(=O)(=O)[O-])cc2)O1.[Na+].[Na+] (stereo not shown) [CS-0843, Sodium 3,3′-((4-((((2-undecyl-1,3-dioxolan-4-yl)methoxy)carbonyl)amino)phenyl)-azanediyl)bis(propane-1-sulfonate)] | >99% | 22% | – | – |
| CCCCCCCCCCC1OCC(COC(=O)NCCCS(=O)(=O)[O-])O1.[Na+] (stereo not shown) [JRW-1564, Sodium 3-((((2-decyl-1,3-dioxolan-4-yl)methoxy)carbonyl)amino)propane-1-sulfonate] | 95.2% | 1% | – | – |
| CCCCCCCCCCCC1(C)OCC(COC(=O)NCC(O)CS(=O)(=O)[O-])O1.[Na+] (stereo not shown) [HW-0797, Sodium 2-hydroxy-3-((((2-methyl-2-undecyl-1,3-dioxolan-4-yl)methoxy)carbonyl)amino)propane-1-sulfonic Acid] | 83.6% | Not soluble | – | – |
| CCCCCC1(CCCCC)OCC(COC(=O)NCC(O)CS(=O)(=O)[O-])O1.[Na+] (stereo not shown) [JZ-0164, Sodium 3-((((2,2-dipentyl-1,3-dioxolan-4-yl)methoxy)carbonyl)amino)-2-hydroxypropane-1-sulfonate] | 93.8% | 0% | – | – |
| CCCCCCOC(C)(COC(=O)NCC(O)CS(=O)(=O)[O-])OCCCCCC.[Na+] (stereo not shown) [RBK-0172] | 8.2% | – | – | – |
| CCCCCCCCCCCC1OCC(COC(=O)NCC(O)CS(=O)(=O)[O-])O1.[Na+] (stereo not shown) [HW-0805, Sodium 2-hydroxy-3-((((2-undecyl-1,3-dioxolan-4-yl)methoxy)carbonyl)amino)propane-1-sulfonate] | 94.2% | Not soluble | – | – |
| CC(COC(=O)NCCCS(=O)(=O)[O-])(OCCC(F)(F)C(F)(F)C(F)(F)C(F)(F)F)OCCC(F)(F)C(F)(F)C(F)(F)C(F)(F)F.[Na+] [ZZ-0842, Sodium 3-(((2,2-bis((3,3,4,4,5,5,6,6,6-nonafluorohexyl)oxy)propoxy)carbonyl)amino)propane-1-sulfonate] | >99% | 0% | – | – |
| CCCCCCCCCCCC1(C)OCC(COC(=O)NCCCS(=O)(=O)[O-])O1.[Na+] (stereo not shown) [JRW-1573, Sodium 3-((((2-methyl-2-undecyl-1,3-dioxolan-4-yl)methoxy)carbonyl)amino)propane-1-sulfonate] | 95.0% | 0% | 0.0133 | 92% |
| CC(COC(=O)NCC(O)CS(=O)(=O)[O-])(OCCC(F)(F)C(F)(F)C(F)(F)C(F)(F)C(F)(F)C(F)(F)F)OCCC(F)(F)C(F)(F)C(F)(F)C(F)(F)C(F)(F)C(F)(F)F.[Na+] (stereo not shown) [ZZ-0846, Sodium 3-(((2,2-bis((3,3,4,4,5,5,6,6,7,7,8,8,8-tridecafluorooctyl)oxy)propoxy)carbonyl)amino)-2-hydroxypropane-1-sulfonate] | 93.4% | 2% | – | – |
| CCCCCCCCCCCCC1OCC(COC(=O)NCC(O)CS(=O)(=O)[O-])O1.[Na+] (stereo not shown) [HW-0807, Sodium 3-((((2-dodecyl-1,3-dioxolan-4-yl)methoxy)carbonyl)amino)-2-hydroxypropane-1-sulfonic Acid] | Not soluble | Not soluble | – | – |
| CCCCCC1(CCCCC)OCC(COC(=O)NCCCS(=O)(=O)[O-])O1.[Na+] (stereo not shown) [JZ-0177, Sodium 3-((((2,2-dipentyl-1,3-dioxolan-4-yl)methoxy)carbonyl)amino)propane-1-sulfonate] | 99.4% | 0% | – | – |
| CCCCCCCCCCC1OCC(COC(=O)NCC(O)CS(=O)(=O)[O-])O1.[Na+] (stereo not shown) [HW-0801, Sodium 3-((((2-decyl-1,3-dioxolan-4-yl)methoxy)carbonyl)amino)-2-hydroxypropane-1-sulfonic Acid] | 94.1% | Not soluble | – | – |
| CCCCCCCC1(CCCCCCC)OCC(COC(=O)NCCCS(=O)(=O)[O-])O1.[Na+] (stereo not shown) [RBK-0170] | 88.3% | 0% | 0.0107 | 74% |
